Laboratory results published in patent publication US10239844B2, “Disubstituted triazole analogs” (BioVentures, LLC, priority 2014, dated 2019).

tested on: HOP-92; test: NCI 60 panel five-dose growth inhibition, Non-Small Cell Lung Cancer; type: cell-based, human; conditions: HOP-92, Non-Small Cell Lung Cancer

SMILES | TGI [nM]
COc1ccc(-c2n[nH]nc2-c2cc(OC)cc(OC)c2)cc1 [Example 5, 4-(3,5-dimethoxyphenyl)-5-(4-methoxyphenyl)-2H-1,2,3-triazole] | 80

same assay, conditions: Homo sapiens; HOP-92, Non-Small Cell Lung Cancer

SMILES | GI50 [nM]
COc1ccc(-c2n[nH]nc2-c2cc(OC)cc(OC)c2)cc1 [Example 5, 4-(3,5-dimethoxyphenyl)-5-(4-methoxyphenyl)-2H-1,2,3-triazole] | < 10

tested on: ACHN; test: NCI 60 panel five-dose growth inhibition, Renal Cancer; type: cell-based, human; conditions: not given

SMILES | TGI [nM]
COc1ccc(-c2n[nH]nc2-c2cc(OC)cc(OC)c2)cc1 [Example 5, 4-(3,5-dimethoxyphenyl)-5-(4-methoxyphenyl)-2H-1,2,3-triazole] | 62500

same assay, conditions: Homo sapiens

SMILES | GI50 [nM]
COc1ccc(-c2n[nH]nc2-c2cc(OC)cc(OC)c2)cc1 [Example 5, 4-(3,5-dimethoxyphenyl)-5-(4-methoxyphenyl)-2H-1,2,3-triazole] | < 10

tested on: MDA-MB-231/ATCC; test: NCI 60 panel five-dose growth inhibition, Breast Cancer; type: cell-based, human; conditions: not given

SMILES | TGI [nM]
COc1ccc(-c2n[nH]nc2-c2cc(OC)cc(OC)c2)cc1 [Example 5, 4-(3,5-dimethoxyphenyl)-5-(4-methoxyphenyl)-2H-1,2,3-triazole] | >100000

same assay, conditions: Homo sapiens

SMILES | GI50 [nM]
COc1ccc(-c2n[nH]nc2-c2cc(OC)cc(OC)c2)cc1 [Example 5, 4-(3,5-dimethoxyphenyl)-5-(4-methoxyphenyl)-2H-1,2,3-triazole] | < 10

tested on: SK-OV-3; test: NCI 60 panel five-dose growth inhibition, Ovarian Cancer; type: cell-based, human; conditions: Homo sapiens; SK-OV-3, Ovarian Cancer

SMILES | GI50 [nM]
COc1ccc(-c2n[nH]nc2-c2cc(OC)cc(OC)c2)cc1 [Example 5, 4-(3,5-dimethoxyphenyl)-5-(4-methoxyphenyl)-2H-1,2,3-triazole] | < 10

same assay, conditions: SK-OV-3, Ovarian Cancer

SMILES | TGI [nM]
COc1ccc(-c2n[nH]nc2-c2cc(OC)cc(OC)c2)cc1 [Example 5, 4-(3,5-dimethoxyphenyl)-5-(4-methoxyphenyl)-2H-1,2,3-triazole] | 40300

tested on: NCI-H460; test: NCI 60 panel five-dose growth inhibition, Non-Small Cell Lung Cancer; type: cell-based, human; conditions: not given

SMILES | TGI [nM]
COc1ccc(-c2n[nH]nc2-c2cc(OC)cc(OC)c2)cc1 [Example 5, 4-(3,5-dimethoxyphenyl)-5-(4-methoxyphenyl)-2H-1,2,3-triazole] | 10900

same assay, conditions: Homo sapiens

SMILES | GI50 [nM]
COc1ccc(-c2n[nH]nc2-c2cc(OC)cc(OC)c2)cc1 [Example 5, 4-(3,5-dimethoxyphenyl)-5-(4-methoxyphenyl)-2H-1,2,3-triazole] | < 10

tested on: IGROV1; test: NCI 60 panel five-dose growth inhibition, Ovarian Cancer; type: cell-based, human; conditions: not given

SMILES | TGI [nM]
COc1ccc(-c2n[nH]nc2-c2cc(OC)cc(OC)c2)cc1 [Example 5, 4-(3,5-dimethoxyphenyl)-5-(4-methoxyphenyl)-2H-1,2,3-triazole] | 21500

same assay, conditions: Homo sapiens, IGROV-1

SMILES | GI50 [nM]
COc1ccc(-c2n[nH]nc2-c2cc(OC)cc(OC)c2)cc1 [Example 5, 4-(3,5-dimethoxyphenyl)-5-(4-methoxyphenyl)-2H-1,2,3-triazole] | < 10

tested on: 5K-MEL-5; test: NCI 60 panel five-dose growth inhibition, Melanoma; type: cell-based, human; conditions: 5K-MEL-5, Melanoma

SMILES | TGI [nM]
COc1ccc(-c2n[nH]nc2-c2cc(OC)cc(OC)c2)cc1 [Example 5, 4-(3,5-dimethoxyphenyl)-5-(4-methoxyphenyl)-2H-1,2,3-triazole] | 20

same assay, conditions: Homo sapiens; 5K-MEL-5, Melanoma

SMILES | GI50 [nM]
COc1ccc(-c2n[nH]nc2-c2cc(OC)cc(OC)c2)cc1 [Example 5, 4-(3,5-dimethoxyphenyl)-5-(4-methoxyphenyl)-2H-1,2,3-triazole] | < 10

tested on: MOLT-4; test: NCI 60 panel five-dose growth inhibition, Leukemia; type: cell-based, human; conditions: Homo sapiens; MOLT-4, Leukemia

SMILES | GI50 [nM]
COc1ccc(-c2n[nH]nc2-c2cc(OC)cc(OC)c2)cc1 [Example 5, 4-(3,5-dimethoxyphenyl)-5-(4-methoxyphenyl)-2H-1,2,3-triazole] | 12

same assay, conditions: MOLT-4, Leukemia

SMILES | TGI [nM]
COc1ccc(-c2n[nH]nc2-c2cc(OC)cc(OC)c2)cc1 [Example 5, 4-(3,5-dimethoxyphenyl)-5-(4-methoxyphenyl)-2H-1,2,3-triazole] | 16100

tested on: HCC-2998; test: NCI 60 panel five-dose growth inhibition, Colon Cancer; type: cell-based, human; conditions: HCC-2998, Colon Cancer

SMILES | TGI [nM]
COc1ccc(-c2n[nH]nc2-c2cc(OC)cc(OC)c2)cc1 [Example 5, 4-(3,5-dimethoxyphenyl)-5-(4-methoxyphenyl)-2H-1,2,3-triazole] | 22400

same assay, conditions: Homo sapiens; HCC-2998, Colon Cancer

SMILES | GI50 [nM]
COc1ccc(-c2n[nH]nc2-c2cc(OC)cc(OC)c2)cc1 [Example 5, 4-(3,5-dimethoxyphenyl)-5-(4-methoxyphenyl)-2H-1,2,3-triazole] | 24.9

tested on: U251; test: NCI 60 panel five-dose growth inhibition, CNS Cancer; type: cell-based, human; conditions: not given

SMILES | TGI [nM]
COc1ccc(-c2n[nH]nc2-c2cc(OC)cc(OC)c2)cc1 [Example 5, 4-(3,5-dimethoxyphenyl)-5-(4-methoxyphenyl)-2H-1,2,3-triazole] | 16500

same assay, conditions: Homo sapiens, U-251

SMILES | GI50 [nM]
COc1ccc(-c2n[nH]nc2-c2cc(OC)cc(OC)c2)cc1 [Example 5, 4-(3,5-dimethoxyphenyl)-5-(4-methoxyphenyl)-2H-1,2,3-triazole] | < 10

tested on: panel of 60 different human cancer cell lines; test: NCI panel of 60 human cancer cell lines, summary over the panel; type: cell-based; conditions: against almost all the cell lines except UACC-62, COLO 205 and HCC-2998
Description: All synthesized compounds were submitted and evaluated for their anticancer activity at the National Cancer Institute (NCI). The submitted compounds were tested against a panel of 60 different human cancer cell lines, initially at a single concentration of 10 μM. Compounds showing the best growth inhibition activity were then selected for a complete five-dose response study. The anti-tumor effect of each compound was then determined by its GI50 and LC50 values.
The five compounds selected for the full dose response studies have very effective GI50 and TGI (Total Growth Inhibition) values against a variety of human tumor cell lines. All the compounds have LD50 values >100 μM against most of the human cancer cell lines implying the compounds are anti-proliferative. […] Example 4 and Example 6 have <10 nM GI50 values against Leukemia cancer cell lines K-562, SR, non-small lung cancer cell line HOP-92, colon cancer cell lines HCT-116, HCT-15, melanoma cancer lines M14, UACC-62, ovarian cancer cell line NCI/ADR-RES and renal cancer cell line A498.

SMILES | GI50 [nM]
COc1ccc(-c2n[nH]nc2-c2cc(OC)cc(OC)c2)cc1 [Example 5, 4-(3,5-dimethoxyphenyl)-5-(4-methoxyphenyl)-2H-1,2,3-triazole] | < 10

tested on: HOP-62; test: NCI 60 panel five-dose growth inhibition, Non-Small Cell Lung Cancer; type: cell-based, human; conditions: HOP-62, Non-Small Cell Lung Cancer

SMILES | TGI [nM]
COc1ccc(-c2n[nH]nc2-c2cc(OC)cc(OC)c2)cc1 [Example 5, 4-(3,5-dimethoxyphenyl)-5-(4-methoxyphenyl)-2H-1,2,3-triazole] | 72400

same assay, conditions: Homo sapiens; HOP-62, Non-Small Cell Lung Cancer

SMILES | GI50 [nM]
COc1ccc(-c2n[nH]nc2-c2cc(OC)cc(OC)c2)cc1 [Example 5, 4-(3,5-dimethoxyphenyl)-5-(4-methoxyphenyl)-2H-1,2,3-triazole] | < 10
